Publication PMC6522912, “Evaluation of the published kinase inhibitor set to identify multiple inhibitors of bacterial ATP-dependent mur ligases” (Journal of Enzyme Inhibition and Medicinal Chemistry, 2019)
Read-outs that look alike come from different tables or passages of the source.

Tests used:
E. coli MurF = E. coli MurF (Escherichia coli, UniProt P11880); test: biochemical; conditions: for remaining activity at 100 µM: 0.25 h, read-out: RA [%] at 100 µM MurF; for RA (%) MurF: Table S3, aza stilbene compounds
Sequence of E. coli MurF (P11880 whole entry): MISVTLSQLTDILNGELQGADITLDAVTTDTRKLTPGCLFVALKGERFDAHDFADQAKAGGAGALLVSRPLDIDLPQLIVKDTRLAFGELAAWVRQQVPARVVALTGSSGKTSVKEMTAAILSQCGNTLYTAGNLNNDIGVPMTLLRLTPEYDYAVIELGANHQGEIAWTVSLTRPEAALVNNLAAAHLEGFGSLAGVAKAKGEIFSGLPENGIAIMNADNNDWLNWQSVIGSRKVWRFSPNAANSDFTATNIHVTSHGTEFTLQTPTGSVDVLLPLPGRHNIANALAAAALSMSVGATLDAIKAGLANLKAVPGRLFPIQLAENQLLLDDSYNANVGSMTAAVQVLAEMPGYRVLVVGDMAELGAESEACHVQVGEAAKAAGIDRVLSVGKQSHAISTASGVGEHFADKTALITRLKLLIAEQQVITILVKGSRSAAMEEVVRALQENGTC
Description: (§1) Inhibition of the Mur ligases was determined using the malachite green assay, with slight modifications.
(§2) In all cases, the final concentration of DMSO was 5% (v/v). After incubation for 15 min at 37 °C, the enzyme reaction was terminated by addition of 100 µM Biomol green reagent, and the absorbance was measured at 650 nm after 5 min. All of the experiments were run in duplicate. Residual activities were calculated with respect to control assays without the tested compounds, but with the 5% DMSO carrier.
(§3) The published kinase inhibitor set compounds were evaluated for inhibition of MurC, D and F ligases from E. coli using the Malachite green assay, which detects orthophosphate generated during enzymatic reactions. To avoid non-specific inhibition due to aggregate formation, all of the compounds were tested in the presence of detergent (0.005% Triton-X114). The data are presented as the residual activities of these Mur ligases in the presence of 100 µM of each test compound (Supporting Information Table S1). […] Additionally, regarding the data of profiled compounds in large panels of human kinase assays[41]

E. coli MurC = E. coli MurC (Escherichia coli, UniProt P17952); test: Malachite green inhibition assay, MurC; format: biochemical; conditions: for remaining activity at 100 µM: 0.25 h; for RA (%) MurC: Table S3, aza stilbene compounds
Sequence of E. coli MurC (P17952 whole entry): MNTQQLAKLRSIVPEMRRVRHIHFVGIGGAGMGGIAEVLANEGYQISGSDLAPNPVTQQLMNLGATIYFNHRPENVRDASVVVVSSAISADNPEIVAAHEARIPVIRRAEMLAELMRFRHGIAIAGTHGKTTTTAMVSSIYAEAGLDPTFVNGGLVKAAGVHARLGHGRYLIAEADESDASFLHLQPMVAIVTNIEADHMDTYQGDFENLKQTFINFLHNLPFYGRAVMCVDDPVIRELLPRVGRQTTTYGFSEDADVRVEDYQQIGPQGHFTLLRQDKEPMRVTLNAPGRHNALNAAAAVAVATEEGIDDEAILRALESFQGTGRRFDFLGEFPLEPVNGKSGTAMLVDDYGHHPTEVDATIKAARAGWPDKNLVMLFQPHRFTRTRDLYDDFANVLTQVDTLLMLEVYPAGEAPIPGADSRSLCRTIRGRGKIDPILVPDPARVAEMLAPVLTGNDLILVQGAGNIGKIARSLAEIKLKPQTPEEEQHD
Description: as §1, §2, §3

E. coli MurD = E. coli MurD (Escherichia coli, UniProt P14900); test: biochemical; conditions: for remaining activity at 100 µM: 0.25 h, Table S1, PKIS screening, read-out: RA [%] at 100 µM MurD
Sequence of E. coli MurD (P14900 whole entry): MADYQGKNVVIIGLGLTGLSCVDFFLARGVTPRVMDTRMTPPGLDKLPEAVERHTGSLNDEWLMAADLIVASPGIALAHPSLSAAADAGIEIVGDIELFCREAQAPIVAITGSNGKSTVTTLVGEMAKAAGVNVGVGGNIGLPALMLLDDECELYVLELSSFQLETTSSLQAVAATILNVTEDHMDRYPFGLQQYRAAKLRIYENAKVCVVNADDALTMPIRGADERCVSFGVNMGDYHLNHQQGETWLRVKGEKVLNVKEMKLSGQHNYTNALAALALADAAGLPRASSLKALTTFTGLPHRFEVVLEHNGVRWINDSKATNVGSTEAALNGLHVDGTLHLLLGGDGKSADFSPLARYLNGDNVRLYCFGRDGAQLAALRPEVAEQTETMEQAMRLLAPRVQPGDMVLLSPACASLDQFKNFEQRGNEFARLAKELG
Description: as §1, §2
The published kinase inhibitor set compounds were evaluated for inhibition of MurC, D and F ligases from E. coli using the Malachite green assay, which detects orthophosphate generated during enzymatic reactions. To avoid non-specific inhibition due to aggregate formation, all of the compounds were tested in the presence of detergent (0.005% Triton-X114). The data are presented as the residual activities of these Mur ligases in the presence of 100 µM of each test compound (Supporting Information Table S1).

[1] = Table S1, PKIS screening, read-out: RA [%] at 100 µM MurC

| SMILES | remaining activity at 100 µM (E. coli MurF; Table S1, PKIS screening) [%] | remaining activity at 100 µM (E. coli MurC; [1]) [%] | remaining activity at 100 µM (E. coli MurD) [%] | other results |
| --- | --- | --- | --- | --- |
| NS(=O)(=O)c1ccc(NN=C2C(=O)Nc3cccc(CCc4ccncc4)c32)cc1 [GW352430A] | 37 | 64 | 90 |  |
| CS(=O)(=O)CCNCc1ccc(-c2ccc3ncnc(Nc4ccc(OCc5ccccc5)cc4)c3c2)o1 [GW458787A] | 66 | 68 | 58 |  |
| COc1cccc(-c2c[nH]c3c(N/N=C/c4ccncc4)ncnc23)c1 [GW814408X] | 87 | 98 |  |  |
| CCn1c(-c2nonc2N)nc2ccccc21 [GW549034X] |  |  | 100 | RA [%] at 100 µM MurF (E. coli MurF; Table S1, PKIS screening): 93%; RA [%] at 100 µM MurC (E. coli MurC; Table S1, PKIS screening): 70% |
| CNC(=O)c1cncc(C=Cc2ccccc2C)c1 [Compound 8] |  |  |  | RA (%) MurF (E. coli MurF): 85%; RA (%) MurC (E. coli MurC): 100%; RA (%) MurD (E. coli MurD): 91% |
| Cc1cc(-c2ccccn2)cc(C)c1C=Cc1cncc(-c2nn[nH]n2)c1 [Compound 6] |  |  |  | RA (%) MurF (E. coli MurF): 76%; RA (%) MurC (E. coli MurC): 59%; RA (%) MurD (E. coli MurD): 83% |
| COc1ccc(Nc2ncc(-c3ccccc3)o2)cc1OC [GW575533A] | 71 | 79 | 93 |  |
| Cc1nnc(-c2ccc(C)c(-c3ccc(C(=O)NCc4ccc(Cl)cc4)cc3)c2)o1 [GW708893X] | 94 | 100 | 100 |  |
| O=C(Nc1ccc(Oc2ccc3nc(NC(=O)c4ccco4)[nH]c3c2)cc1)Nc1cc(C(F)(F)F)ccc1F [GW683134A] | 100 | 74 | 86 |  |
| CS(=O)(=O)CCNCc1nc(-c2ccc3ncnc(Nc4ccc(F)c(Cl)c4)c3c2)cs1 [GW461104A] | 84 | 88 | 73 |  |
| NC(=O)Cc1ccccc1Oc1nccc(-c2c(-c3ccc(F)cc3)ncn2C2CCNCC2)n1 [SB-264865] | 98 | 66 | 82 |  |
| COc1ccc(-c2coc3ncnc(N)c23)cc1 [GW642125X] | 85 | 100 | 83 |  |
| c1ccc(COc2ccc(Nc3ncnc4ccc(-c5ccco5)cc34)cc2)cc1 [GW284372X] | 100 | 56 | 80 |  |
| CCn1c(-c2nonc2N)nc2ccc(F)cc21 [GW785404X] | 79 | 100 | 88 |  |
| COc1ccc(-c2nn3ncccc3c2-c2ccnc(Nc3ccc4c(c3)OCCO4)n2)cc1 [GW827106X] | 49 |  | 32 | remaining activity at 100 µM (E. coli MurC; read-out: RA [%] at 100 µM MurC, Table S1, PKIS screening): 13% |
| Nc1nc(-c2ccc3c(c2)C(=Cc2cc(Br)c(O)c(Br)c2)C(=O)N3)cs1 [GW407323A] | 41 | 64 | 54 |  |
| COc1cc(Nc2nccc(Nc3ccc4c(C)n[nH]c4c3)n2)cc(OC)c1OC [GW612286X] | 100 | 86 | 94 |  |
| Cc1cc(O)cc(C)c1/C=C/c1cncc(C(N)=O)c1 [GW435821X] | 75 | 89 | 89 |  |
| N#Cc1cccc(Nc2ncc(-c3ccccc3)o2)c1 [GW627834A] | 85 | 78 | 75 |  |
| CNC(=O)c1cncc(C=Cc2c(C)cccc2C)c1 [Compound 9] |  |  |  | RA (%) MurF (E. coli MurF): 54%; RA (%) MurC (E. coli MurC): 85%; RA (%) MurD (E. coli MurD): 83% |
| COc1cccc(-n2nc(C)c3c(N/N=C(\C)c4ccncc4)ncnc32)c1 [GW809885X] | 100 | 76 | 74 |  |

| SMILES | remaining activity at 100 µM (E. coli MurF; Table S1, PKIS screening) [%] | remaining activity at 100 µM (E. coli MurC; [1]) [%] | remaining activity at 100 µM (E. coli MurD) [%] | other results |
| --- | --- | --- | --- | --- |
| CNC(=O)c1cc(-c2ccc(F)cc2)cc(-c2ccc(S(=O)(=O)N3CCCC3)cc2)c1N [GSK635416A] | 88 | 71 | 43 |  |
| NC(=O)c1ccc(-c2nc(-c3ccc4c(c3)OCO4)c(-c3ccccn3)[nH]2)cc1 [SB-431542-A] |  |  |  | RA [%] at 100 µM MurF (E. coli MurF; Table S1, PKIS screening): 100%; RA [%] at 100 µM MurC (E. coli MurC; Table S1, PKIS screening): 59%; RA [%] at 100 µM MurD (E. coli MurD): 90 |
| Cc1cc(O)cc(C)c1C=Cc1cncc(-c2nn[nH]n2)c1 [Compound 7] |  |  |  | RA (%) MurF (E. coli MurF): 90%; RA (%) MurC (E. coli MurC): 70%; RA (%) MurD (E. coli MurD): 91% |
| CN1CCN(CCCNc2nc3ccc(Oc4ccc(NC(=O)Nc5cc(C(F)(F)F)ccc5F)cc4)cc3[nH]2)CC1 [GW700494A] | 95 | 99 | 73 |  |
| CNC(=O)Oc1cc(C)c(/C=C/c2cncc(C(=O)NC)c2)c(C)c1 [GW432441X] |  |  | 69 | remaining activity at 100 µM (E. coli MurF): 87%; remaining activity at 100 µM (E. coli MurC; read-out: RA [%] at 100 µM MurC): 68% |
| COc1cc(C=NNc2ncnc3c2cnn3-c2ccccc2)ccc1O [GW513184X] | 78 | 89 | 86 |  |
| C/C(Nc1ccc(S(N)(=O)=O)cc1)=C1/C(=O)Nc2ccccc21 [GW335962X] | 88 | 72 | 76 |  |
| CCn1c(-c2nonc2N)nc2c(C#CC(C)(C)O)nc(OCCNC)cc21 [GSK949675A] | 74 | 73 | 85 |  |
| CC(=O)NCc1cccc(C#Cc2cncnc2Nc2ccc(OCc3cccc(F)c3)c(Cl)c2)c1 [GW807930X] | 69 | 66 |  |  |
| COc1cccc(-n2ncc3c(N/N=C/c4ccncc4)ncnc32)c1 [GW784752X] | 93 | 76 |  |  |
| Cc1cc(O)cc(Nc2ccnc3cc(-c4ccccn4)ccc23)c1 [GSK3206866A] |  |  |  | RA [%] at 100 µM MurF (E. coli MurF; Table S1, PKIS screening): 29%; RA [%] at 100 µM MurC (E. coli MurC; Table S1, PKIS screening): 76% |
| OCc1ccc(-c2nc(-c3ccccn3)c(-c3ccc4c(c3)OCO4)[nH]2)cc1 [SB-431533] | 75 | 95 |  |  |
| CCn1c(-c2nonc2N)nc2ccccc21 [SB-693162] | 100 | 78 |  |  |
| COc1cc(Nc2ncc3c(C)nc(-c4cccc(C(F)(F)F)c4)n3n2)cc(OC)c1OC [GW837331X] | 89 | 65 |  |  |
| Cn1c(-c2nonc2N)nc2cnccc21 [SB-736290] | 90 | 71 |  |  |
| Clc1ccc(CNc2nccc(-c3cnn4ncccc34)n2)cc1 [GW781673X] | 63 | 79 |  |  |
| c1ccc(Oc2ccc(Nc3ncc(-c4ccccc4)o3)cc2)cc1 [GW641155A] | 86 | 66 |  |  |
| Cc1cccc2c1NC(=O)C2=NNc1ccc(S(N)(=O)=O)cc1 [GW282536X] | 27 | 93 |  |  |
| COc1cc2ncn(-c3cc(O[C@@H](C)c4ccccc4Cl)c(C(N)=O)s3)c2cc1OC [GSK237700A] | 75 |  |  |  |
| NC(=O)c1cccc(Nc2nccc(Nc3cccc(F)c3)n2)c1 [GW759710A] | 100 | 100 |  |  |
